Experimental data from patent publication US8735620B2, “Processes for preparing (E)-styrylbenzylsulfone compounds and uses thereof for treating proliferative disorders” (priority 2008, dated 2014).
Read-outs that look alike come from different tables or passages of the source.

How the values were obtained:
[1] = system: DU145 (human prostate tumor cell line); experiment: Cytotoxicity assay (trypan blue exclusion, 96 h), DU145; format: cell-based; details: DU145, 96 h treatment; read-out: DU145 IC50
Text: (§2) Tissue Culture and Reagents: Paclitaxel was purchased from Sigma. Cell lines were purchased from ATCC. Cell lines were routinely grown in DMEM or RPM1 (CellGro) supplemented with 10% fetal bovine serum (Atlas) and 1 unit/mL penicillin-streptomycin (Gibco).

[2] = system: BT20, DU145, H157 and DLD1 cell lines; experiment: In vitro cytotoxicity, four human tumor cell lines (SAR discussion); format: cell-based; details: for activity in cell-killing assays: at the highest concentration (20 μM) tested
Method: A number of tumor cell lines were tested using a dose response end point assay system. The cells were grown in either DMEM or RPMI supplemented with 10% fetal bovine serum and 1 unit/mL Penicillin-Streptomycin solution. The tumor cells were plated into 6 well dishes at a cell density of 1.0×10^5 cells/mL/well and compounds were added 24 h later at various concentrations. Cell counts were determined from duplicate wells after 96 h of treatment. The total number of viable cells was determined by trypan blue exclusion.
Following the synthesis of this group of compounds, their in vitro cytotoxicity was assessed using four different human tumor cell lines derived from human breast (BT20), prostate (DU145), lung (H157) and colorectal (DLD1) cancers. […] In a majority of the compounds described here, a methoxy group was kept constant at the 4th position on the aromatic ring of the benzyl moiety.

[3] = system: H157 (human lung tumor cell line); experiment: Cytotoxicity assay (trypan blue exclusion, 96 h), H157; format: cell-based; details: H157, 96 h treatment; read-out: H157 IC50
Text: as §2

[4] = system: BT20 (human breast tumor cell line); experiment: Cytotoxicity assay (trypan blue exclusion, 96 h), BT20; format: cell-based; details: BT20, 96 h treatment
Text: as §2

[5] = system: DLD1 (human colorectal tumor cell line); experiment: Cytotoxicity assay (trypan blue exclusion, 96 h), DLD1; format: cell-based; details: DLD1, 96 h treatment; read-out: DLD1 IC50
Text: as §2

[6] = system: MIA-PaCa-2 cells; experiment: Soft agar colony formation, MIA-PaCa-2; format: cell-based, human
Method: (§1) FIG. 1 Anti-tumor effects of (E)-2,4,6-Trimethoxystyryl-3-Hydroxy-4-Methoxybenzyl Sulfone (6aa). A. 6aa inhibits the growth of parental (MES-SA) and Paclitaxel resistant (MES-SA/DX5) cell lines with equal efficiency. The parental uterine sarcoma cells and the MDR positive (MES-SA/DX5) cells were plated into 6 well dishes and treated with various concentrations of 6aa and Paclitaxel for 96 h. The number of viable cells from duplicate plates was determined by trypan blue exclusion. B. Soft Agar Assays. MIA-PaCa-2 cells (1.0×10^5) were plated in soft agar containing various concentrations of each compound in triplicates. After three weeks of growth, the plates were stained for 48 h using 0.05% nitroblue tetrazolium solution. Representative plates were photographed using an Olympus stereoscope mounted with a Sony digital camera system (DKC5000, Sony Inc).
The soft agar plates were prepared as described by Cosenza, et al (Cosenza, S. C. et al. In Cell Growth, Differentiation and Senescence, Studzinski, G. P., Ed.; Oxford University Press: 1999, 161-176.). Briefly, Noble bottom agar (0.8%) was plated onto 60 mm tissue culture plates. Exponentially growing MIA-PaCa-2 cells (1.0×10^5) were mixed with growth medium with various concentrations of each compound and mixed with Noble agar to a final concentration of 0.4%. Each concentration was plated in triplicate. The top agar was allowed to solidify and the plates were then incubated at 5% CO2 at 37° C. for 3 weeks. The plates were then stained with 0.05% nitroblue tetrazolium (NBT) solution and representative plates were photographed using an Olympus stereoscope mounted with a Sony digital camera system (DKC5000, Sony Inc).

[7] = system: MES-SA/DX5; experiment: Tumor cell killing, MES-SA/DX5 (multidrug resistant subline); format: cell-based, human
Method: as §1, with “A.” for “FIG. 1 Anti-tumor effects of (E)-2,4,6-Trimethoxystyryl-3-Hydroxy-4-Methoxybenzyl Sulfone (6aa). A.”, “Inc). Tissue Culture and Reagents: […] Cell lines were purchased from ATCC. Cell lines were routinely grown in DMEM or RPM1 (CellGro) supplemented with 10% fetal bovine serum (Atlas) and 1 unit/mL penicillin-streptomycin (Gibco). A number of tumor cell lines were tested using a dose response end point assay system. The cells were grown in either DMEM or RPMI supplemented with 10% fetal bovine serum and 1 unit/mL Penicillin-Streptomycin solution. […] Cell counts were determined from duplicate wells after 96 h of treatment. The total number of viable cells was determined by trypan blue exclusion.” for “Inc).”

[8] = system: MES-SA; experiment: Tumor cell killing, MES-SA (parental uterine sarcoma); format: cell-based, human; details: Homo sapiens; parental cell line MES-SA, 96 h dose response; read-out: IC50
Method: as §1, with “A.” for “FIG. 1 Anti-tumor effects of (E)-2,4,6-Trimethoxystyryl-3-Hydroxy-4-Methoxybenzyl Sulfone (6aa). A.”, “Inc). Tissue Culture and Reagents: […] Cell lines were purchased from ATCC. Cell lines were routinely grown in DMEM or RPM1 (CellGro) supplemented with 10% fetal bovine serum (Atlas) and 1 unit/mL penicillin-streptomycin (Gibco). A number of tumor cell lines were tested using a dose response end point assay system. The cells were grown in either DMEM or RPMI supplemented with 10% fetal bovine serum and 1 unit/mL Penicillin-Streptomycin solution. […] Cell counts were determined from duplicate wells after 96 h of treatment. The total number of viable cells was determined by trypan blue exclusion.” for “Inc).”

[9] = system: BT20 human breast carcinoma xenograft; experiment: Nude mouse xenograft assay
Method: Female athymic (NCr-nu/nu) mice were injected subcutaneously with 0.5-1×10^7 ER-negative human breast tumor cells (BT-20) in 0.2 mL of PBS and the tumors allowed to grow to a size of 100-150 mm^3 in size in about 14 days. The mice were then paired such that the pairs harbored equal sized tumors, which were then used to test the therapeutic effects of 6s and 6ab. A Of the pairs, the animals were treated with either 50 mg/kg 6s following a Q4D schedule or 25 mg/kg using a Q2D schedule or vehicle (DMSO) control. The tumor size was then measured on alternate days in two dimensions and the volume determined using either of the following equations: 1: V=(L×(S^2))π/6); where L is the longer and S is the shorter of the two measurements. B. 6ab was dissolved in PBS and was administered intravenously (50 mg/kg) through the tail vein on every alternate day. Tumor measurements were done as in materials and methods.
Female athymic (NCR-nu/nu, Taconic) nude mice were injected with 0.5-1.0×10^7 BT20 cells subcutaneously in the hind leg using a 1 mL tuberculin syringe equipped with a 271/2 gauge needle. Approximately 14 days later, mice were paired (N=8) and injected with 6ab or Phosphate buffered saline as the vehicle control. The intravenous injections were performed in the mouse tail vein using a 1 mL tuberculin syringe equipped with a 30 gauge needle. The animals were injected following a Q2D×3 schedule. Tumor measurements (two dimensions) were done three times per week using traceable digital vernier calipers (Fisher).

[10] = Single dose and repeat-dose toxicology studies in mice; format: in vivo
[11] = system: DU145; experiment: Soft agar colony formation, DU145; format: cell-based, human; details: DU145, dose dependent
[12] = Acute and repeat toxicity studies in rats; format: in vivo; details: intravenous
Method: Single dose and repeat-dose (28 daily injections) toxicology studies were carried out with one water-soluble form of this series (6ab) to assess the safety of intravenously administered drug in rats.

[13] = system: mantle cell lymphoma cell lines; details: Park et al Oncogene 2007; cited from earlier work
[14] = Water solubility
[15] = system: BT20; experiment: Soft agar colony formation, BT20; format: cell-based, human; details: BT20, dose dependent
[16] = single dose and repeat-dose (28 daily injections)

With `COc1ccc(CS(=O)(=O)/C=C/c2ccc(OC)c(OC)c2OC)cc1` [6r, (E)-2,3,4-Trimethoxystyryl-4-Methoxybenzyl sulfone] the IC50 [1] was > 20 µM, the “activity in cell-killing assays” value [2] was “totally inactive” and the IC50 [3] was > 20 µM. For the same compound, the IC50 [4] was > 20 µM and the IC50 [5] was > 20 µM.

In the case of `COc1ccc(CS(=O)(=O)/C=C/c2cc(OC)c(OC)c(OC)c2)cc1` [6t, (E)-3,4,5-Trimethoxystyryl-4-Methoxybenzyl sulfone], the IC50 [1] is reported as > 20 µM, the “activity in cell-killing assays” value [2] is reported as “totally inactive” and the IC50 [3] is reported as > 20 µM. The IC50 [4] was > 20 µM and the IC50 [5] was > 20 µM.

In the case of `COc1ccc(CS(=O)(=O)/C=C/c2c(OC)cc(O)cc2OC)cc1` [6u, (E)-2,6-Dimethoxy-4-hydroxystyryl-4-Methoxybenzyl sulfone], the IC50 [1] is reported as > 20 µM, the “cytotoxic activity, SAR statement” value ([2]; four human tumor cell lines) is reported as “either a reduced level or total loss of activity” and the IC50 [3] is reported as > 20 µM. The IC50 [4] was > 20 µM and the IC50 [5] was > 20 µM.

In the case of `COc1ccc(CS(=O)(=O)/C=C/c2c(OC)cc(F)cc2OC)cc1` [6v, (E)-2,6-Dimethoxy-4-fluorostyryl-4-Methoxybenzyl sulfone], the IC50 [1] is reported as 0.5 µM, the “cytotoxic activity, SAR statement” value [2] is reported as “either a reduced level or total loss of activity” and the IC50 [3] is reported as 0.5 µM. The IC50 [4] was 0.75 µM and the IC50 [5] was 0.75 µM.

For `COc1ccc(CS(=O)(=O)/C=C/c2c(C)cc(C)cc2C)cc1` [6w, (E)-2,4,6-Trimethylstyryl-4-Methoxybenzyl sulfone], the IC50 [1] was > 20 µM, the “cytotoxic activity, SAR statement” value [2] was “inactive” and the IC50 [3] was > 20 µM. The IC50 [4] was > 20 µM and the IC50 [5] was > 20 µM.

For `CC(=O)O[C@H]1C(=O)[C@@]2(C)[C@H]([C@H](OC(=O)c3ccccc3)[C@]3(O)C[C@H](OC(=O)[C@H](O)[C@@H](NC(=O)c4ccccc4)c4ccccc4)C(C)=C1C3(C)C)[C@]1(OC(C)=O)CO[C@@H]1C[C@@H]2O` [Paclitaxel, reference compound], the “potency in soft agar relative to 6aa and 6ab” value ([6]; positive control, FIG. 1b) was “slightly lower potency”, the IC50 ([7]; Homo sapiens, MDR positive subline MES-SA/DX5, 96 h dose response, read-out: IC50) was 0.75 µM and the “fold resistance of MDR positive subline versus parental cell line” value ([7]; MES-SA/DX5 vs MES-SA) was “greater than 100 fold”. For the same compound, the IC50 [8] was 0.004 µM.

With “(E)-2,4,6-Trimethoxystyryl-3^1-O-phosphate disodium-4-methoxybenzyl Sulfone [6ab]” the “tumor growth in xenograft model” value ([9]; 50 mg/kg IV tail vein, alternate days, 21 days) was “readily inhibited tumor growth”, the “tumor volume response of the majority of the mice” value ([9]; 8 mice per group) was “growth arrest or a gradual reduction in their tumor volume” and the animal deaths ([9]; IV, Q2D×3 schedule) was “nor were there any animal deaths”. The body weight loss ([9]; IV, Q2D×3 schedule) was “Body weight loss of more than 10% was not observed”, the “growth of tumor cells in soft agar” value ([6]; MIA-PaCa-2, dose dependent, three weeks) was “complete inhibition of the growth of tumor cells” and the IC50 [1] was 0.0025 µM. For the same compound, the “drug levels in circulation” value [10] was “High, dose dependent, drug levels were sustained in circulation”, the “hematotoxicity, liver damage, neurotoxicity” value [10, 16] was “did not cause hematotoxicity (no myleosuppression), liver damage or detectable neurotoxicity” and the “cytotoxic activity, SAR statement” value ([2]; four human tumor cell lines) was “did not alter the potency”. The “growth of tumor cells in soft agar” value [11] was “complete inhibition of the growth of tumor cells”, the IC50 [3] was 0.007 µM and the IC50 [4] was 0.005 µM. For the same compound, the “drug levels in circulation” value [12] was “High dose dependent drug levels were sustained in circulation”, the “hematotoxicity, liver damage, neurotoxicity” value [12, 16] was “did not cause hematotoxicity (no myleosuppression), liver damage or any detectable neurotoxicity” and the IC50 [5] was 0.007 µM. The “effect on mantle cell lymphoma cell lines” value [13] was “altered the growth and cell cycle status”, the “water solubility” value [14] was “highly water-soluble” and the “growth of tumor cells in soft agar” value [15] was “complete inhibition of the growth of tumor cells”.
